Assay results reported in patent US6884601B1, “Method to detect fertilization potential of sperm” (priority 1999, dated 2005).

Biological target: T1, phospholipid hydroperoxide glutathione peroxidase (PHGPx) (Rattus norvegicus, UniProt P36970)
T1 construct: from tissue; host or cells: Wistar rat: cells from seminiferous tubules of the testis, epididymal spermatozoa, sperm mitochondrial capsule
T1 sequence (P36970 3-170 isoform P36970-2 limits assumed): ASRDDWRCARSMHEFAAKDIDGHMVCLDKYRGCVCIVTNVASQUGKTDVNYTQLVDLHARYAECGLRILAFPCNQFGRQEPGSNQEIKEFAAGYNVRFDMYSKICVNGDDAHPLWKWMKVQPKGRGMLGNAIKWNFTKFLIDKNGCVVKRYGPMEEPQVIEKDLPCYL
Experiment: PHGPx activity after solubilisation/reduction with thiols (phosphatidylcholine hydroperoxide substrate)
Type: biochemical
Conditions: for PHGPx activity: 6M guanidine-HCl, pH 7.5, 4° C., 10 min
Method: In fact, the specific activities thus obtained from mitochondrial capsules exceed, by a factor of 20, the highest values ever measured, i.e. in spermatogenic cells. Nevertheless, this extreme PHGPx activity is still low compared to its content in PHGPx protein.
Spermatozoa of four month old Wistar rats (about 300 grams of body weight) were collected by squeezing cauda epididymis and vas deferens in phosphate buffer saline (PBS) and by centrifugating at 600×g for 10 minutes. Cell and sperm pellets were layered on a discontinous 45%, 70% and 95% Percoll gradient and centrifugated at 300×g for 20 min. Spermatogenic cells stacked on top of the gradient, while spermatozoa separated into the 70% Percoll layer. Cells from seminiferous epithelium were prepared as follows (26): testes were deprived of albuginea, seminiferous tubules were cut into small pieces in PBS containing 0.250 mg/ml collagenase, and incubated twice 25° C. for 15 min. Cells then were filtered through a stainless steel screen (140 μm pore), washed in PBS and centrifugated at 300×g for 10 min. Sperm mitochondrial capsule was prepared according to Calvin et al. (1): sperms were resuspended in 0.05 M Tris-HCl pH 8.0 at the concentration of 10^6 cells/ml and treated with trypsin (0.2 mg/ml) for 10 minutes. After stopping the protease action with trypsin inhibitor (0.5 mg/ml) and SDS (10 mg/ml) sperms were centrifugated at 1,500×g for 10 minutes. Pellets were resuspended in 0.05 M Tris-HCl, pH 8.5 containing 1% sodium dodecyl sulphate (SDS), and 0.2 mM DTT and kept under continuous stirring for 30 minutes. Following centrifugation at 4,500×g for 15 min, the resulting supernatant was layered on a 1.6 M sucrose cushion. After centrifugation for 20 min at 18,000×g in a swinging rotor, sperm capsules were collected as a band at the top of the sucrose cushion, washed in Tris-HCl, pH 8.0 and spun at 140,000×g.
When applicable, PHGPx was also identified by activity measurement according to (28) using the specific substrate phosphatidylcholine hydroperoxide.

[1] = 0.1 M thiol in the presence of guanidine, measured after elimination of denaturating and reducing agents

| Reactivation of latent PHGPx of sperm mitochondrial capsule / mature spermatozoa (glutathione in the low millimolar range, conventional test conditions) | Reactivation of latent PHGPx of sperm mitochondrial capsule / mature spermatozoa [1] | PHGPx activity (Cells from seminiferous tubules, 5 mM 2-mercaptoethanol, mean and S.D. of five) [mU/mg protein] | PHGPx activity (Cells from seminiferous tubules, 100 mM 2-mercaptoethanol, mean and S.D. of five) [mU/mg protein] | PHGPx activity (Mitochondrial capsule, 5 mM 2-mercaptoethanol) | PHGPx activity (Mitochondrial capsule, 100 mM 2-mercaptoethanol, mean and S.D. of five) | PHGPx activity (Spermatozoa from tail of epididymis, 5 mM 2-mercaptoethanol) | PHGPx activity (Spermatozoa from tail of epididymis, 100 mM 2-mercaptoethanol, mean and S.D. of five) | Structure (SMILES) |
| --- | --- | --- | --- | --- | --- | --- | --- | --- |
| neither reactivated |  |  |  |  |  |  |  | N[C@@H](CCC(=O)N[C@@H](CS)C(=O)NCC(=O)O)C(=O)O [glutathione] |
|  | regenerate a significant PHGPx activity |  |  |  |  |  |  | O[C@H](CS)[C@H](O)CS (racemic) [dithiothreitol] |
|  | regenerate a significant PHGPx activity | 250 ± 10 | 260 ± 10 | undetectable | 5,600 ± 290 mU/mg protein | undetectable | 3,140 ± 200 mU/mg protein | OCCS [2-mercaptoethanol] |
